Measured values from patent US20090074676A1, “Inhibition of p38 MAPK For Treatment Of Obesity” (SMITHKLINE BEECHAM CORPORATION, priority 2005, published 2009).
Entries after “also recorded” stand apart in the source; their conditions may differ.

Columns and labels:
[1] = tested on: DIO AKR mice; test: Experiment 2: two week treatment of 24-25 weeks old male DIO AKR mice on high fat diet; type: in vivo; conditions: 10 & 30 mg/kg, PO, BID
Procedure: Compound 2 was administered for a two week treatment in 24-25 weeks old male DIO AKR mice (older). Methods: Male AKR mice, from Jackson Laboratories, group housed, 24-25 weeks old, on high fat diet (HFD, D12331 rodent diet, 58 kcal % from fat and sucrose. Research Diets, Inc., New Brunswick, N.J.) started at 4-5 weeks old. A parallel group of mice on normal diet (ND, Purina 5001) was served as diet control. During the last 2 weeks of diet period, mice on HFD were treated with vehicle (0.5% tragacanth in 0.03N HCl), Compound 2 administered at 10, and 30 mg/kg, BID, PO (10 ml/kg). Mice on ND were treated with vehicle. Mouse number in each group was 7-10. Body weight (BW), body composition, postprandial blood glucose, and fasting serum insulin were measured.

[2] = tested on: diet-induced obese (DIO) AKR mice; test: Experiment 1: four weeks treatment of 18-19 weeks old male DIO AKR mice on high fat diet (body weight, body composition, glucose, ITT); type: in vivo
Procedure: Compound 2 was administered for four weeks treatment in 18-19 weeks old male, diet-induced obese (DIO) AKR mice. Methods: Male AKR mice, from Jackson Laboratories, group housed, 18-19 weeks old, on high fat diet (HFD, D12331 rodent diet, 58 kcal % from fat and sucrose. Research Diets, Inc., New Brunswick, N.J.) started at 4-5 weeks old. A parallel group of mice on normal diet (ND, Purina 5001) was served as diet control. During the last 4 weeks of diet period, mice on HFD were treated with vehicle (0.5% tragacanth in 0.03N HCl), Compound 2 was administered at 3 mg/kg, and 10 mg/kg, and water (control for vehicle), twice daily (BID), orally (PO) at 10 ml/kg. Mice on normal diet (ND) were treated with vehicle. Mouse number in each group was 7-10. Body weight (BW) was monitored once a week. Body composition was monitored every other week by using EchoMRI™ Whole Body Composition Analyzer (Echo Medical Systems, Houston, Tex.). Fasting blood glucose was measured at 2 weeks of treatment. Postprandial blood glucose was measured at before and end of treatment. Fasting serum insulin was measured at dosing 2 weeks via orbital bleeding. Serum IL-6 was measured at the end of treatment under fasting condition. Insulin tolerance test (ITT) was also performed at end of the diet period.

[3] = tested on: DIO C57BL/6 mice; test: Experiment 3: four weeks treatment of male DIO C57BL/6 mice on high fat diet (body weight, body composition, glucose); type: in vivo; conditions: PO, BID, 4 weeks
Procedure: Methods: Male C57BL/6 mice, from Jackson Laboratories, group housed, 18-19 weeks old, on high fat diet (HFD, D12331 rodent diet, 58 kcal % from fat and sucrose. Research Diets, Inc., New Brunswick, N.J.) started at 4-5 weeks old. A parallel group of mice on normal diet (ND, Purina 5001) was served as diet control. During the last 4 weeks of diet period, mice on HFD were treated with vehicle (0.5% tragacanth in 0.03N HCl), Compound 2 administered at 3, 10, and 30 mg/kg, BID, PO (10 ml/kg). Mice on ND were treated with vehicle. Mouse number in each group was 8-10. Body weight (BW), body composition, fasting blood glucose, postprandial blood glucose and insulin were measured. […] Epididymal fat pad was collected to determine PPARγ and GLUT4 gene expression.

[4] = tested on: 3T3-L1 adipocytes; conditions: by reducing GLUT4 activity; cited from earlier work

| SMILES | blood glucose ([1]; 2 weeks) | reduction in body weight (BW) ([1]; last 2 weeks of 20 weeks on HFD, p<0.05) | time at which the effect on BW and fat mass appeared ([1]; more pronounced over the 2 weeks) [days] | blood glucose ([2]; 3 & 10 mg/kg, PO, BID, 4 weeks) | lean mass ([2]; 3 & 10 mg/kg, PO, BID, 4 weeks) | reduction in body weight (BW) ([2]; 3 & 10 mg/kg, PO, BID, last 4 weeks of 14 weeks on HFD, p<0.05) | response to an insulin tolerance test (ITT) ([2]; end of diet period, insulin i.p. 0.75 U/kg) | blood glucose [3] | lean mass [3] | insulin-induced glucose uptake [4] |
| --- | --- | --- | --- | --- | --- | --- | --- | --- | --- | --- |
| COc1nccc(-c2c(-c3ccc(F)cc3)ncn2[C@H]2CC[C@H](O)CC2)n1 [Compound 2, trans-1-(4-hydroxycyclohexyl)-4-(4-fluorophenyl)-5-[(2-methoxy)pyrimidin-4-yl]imidazole] | no effect; also recorded: did not have any significant effect | 4-9% | 4 | no effect; also recorded: did not have any significant effect | no effect | 4-9% | did not have any significant effect | no effect; also recorded: did not have any significant effect | no effect | – |
| C[S+]([O-])c1ccc(-c2nc(-c3ccc(F)cc3)c(-c3ccncc3)[nH]2)cc1 (stereo not shown) [Compound 1, 4-(4-Fluorophenyl)-2-(4-methylsulfinylphenyl)-5-(4-pyridyl)imidazole] | – | – | – | – | – | – | – | – | – | reduced insulin-induced glucose uptake |
